Values joined by “and” are separate entries in the source; they are usually repeats but may differ in a detail not shown here. Identical values can stand only once. Like-named read-outs stand apart in the source and are kept apart here.
Columns and labels:
intestinal polyps = conditions: 100 ppm in the diet; min mice; cited from earlier work
small intestinal polyps = conditions: 50 mg/kg qd p.o.; APCmin mice; cited from earlier work
[1] = cited from earlier work; for risk of heart attack: VIGOR study patients
[2] = APPROVe; beginning after 18 months of therapy; cited from earlier work
Clostridium perfringens = conditions: anaerobic, 37° C.; for Celecoxib prodrug concentration: C. perfringens in BHI
[3] = BHI media without bacteria
[4] = long-term (33 months) high-dose, 400 and 800 mg daily; cited from earlier work

Compound: CC(C)c1c(C(=O)Nc2ccccc2)c(-c2ccccc2)c(-c2ccc(F)cc2)n1CC[C@@H](O)C[C@@H](O)CC(=O)O [atorvastatin]
- intestinal polyp formation (intestinal polyps): significantly (P<0.002) suppressed intestinal polyp formation

Compound: C#Cc1cccc(Nc2ncnc3cc(OCCOC)c(OCCOC)cc23)c1 [erlotinib]
- inhibition in total polyp number (small intestinal polyps): 57%
- reduction in the number of 1- to 2-mm-sized polyps (small intestinal polyps): 46%
- reduction in the number of <1-mm-sized polyps (small intestinal polyps): 43%
- reduction in the number of large-sized (>2 mm) polyps (small intestinal polyps): 96%

Compound: CS(=O)(=O)c1ccc(C2=C(c3ccccc3)C(=O)OC2)cc1 [rofecoxib]
- risk of heart attack [1]: 0.4%
- RR of heart attack ([1]; VIGOR study, naproxen patients compared with rofecoxib patients): 0.25
- risk of adverse thrombotic cardiovascular events [2]: increased relative risk of adverse thrombotic cardiovascular events

Compound: Cc1ccc(-c2cc(C(F)(F)F)nn2-c2ccc(S(=O)(=O)NC(=O)CCc3ccccc3/N=N/c3ccc(O)c(C(=O)O)c3)cc2)cc1 [PC1, 2-Hydroxy-5-(2-3{-oxo-3[4-(5-p-tolyl-3-trifluoromethyl-pyrazol-1-yl)-benzenesulfonylamino]-propyl}-phenylazo)-benzoic acid]
- Celecoxib prodrug concentration (Clostridium perfringens; 0 hours): 15.59 µM and 14.97 µM
- Celecoxib prodrug concentration (Clostridium perfringens; 8 hours): 0.00 µM
- Celecoxib prodrug concentration (Clostridium perfringens; 24 hours): 0.00 µM
- Azoreductase activity of Clostridium perfringens towards the prodrug (Clostridium perfringens): Azoreductase activity was observed
- Celecoxib prodrug in BHI ([3]; 0 hours): 16.70 µM
- Celecoxib prodrug in BHI ([3]; 2 hours): 18.40 µM
- Celecoxib prodrug in BHI ([3]; 4 hours): 17.14 µM
- Celecoxib prodrug in BHI ([3]; 6 hours): 15.29 µM
- Celecoxib prodrug in BHI ([3]; 8 hours): 15.15 µM
- Celecoxib prodrug in BHI ([3]; 24 hours): 16.99 µM

Compound: COc1ccc2cc([C@H](C)C(=O)O)ccc2c1 [naproxen]
- risk of heart attack [1]: 0.1%

Compound: Cc1ccc(-c2cc(C(F)(F)F)nn2-c2ccc(S(N)(=O)=O)cc2)cc1 [celecoxib]
- cardiovascular risk [4]: increased cardiovascular risk compared with placebo
